Results: ChEMBL document CHEMBL5233265, “Recent advances in the design and development of formyl peptide receptor 2 (FPR2/ALX) agonists as pro-resolving agents with diverse therapeutic potential” (Eur J Med Chem, 2021)
Each block holds one molecule with its values, some of them ahead of it.

Columns and labels:
[1] = biological target: T1, fMet-Leu-Phe receptor (Homo sapiens) (UniProt P21462); experiment: Agonist activity at human recombinant FPR1 stably transfected in Flp-In-CHO cells assessed as maximal intracellular calcium mobilization at 10 uM incubated for 1 hr by Fluo-4 AM dye based fluorescence plate reader assay relative to control; assay type: cell-based
T1 sequence (whole entry): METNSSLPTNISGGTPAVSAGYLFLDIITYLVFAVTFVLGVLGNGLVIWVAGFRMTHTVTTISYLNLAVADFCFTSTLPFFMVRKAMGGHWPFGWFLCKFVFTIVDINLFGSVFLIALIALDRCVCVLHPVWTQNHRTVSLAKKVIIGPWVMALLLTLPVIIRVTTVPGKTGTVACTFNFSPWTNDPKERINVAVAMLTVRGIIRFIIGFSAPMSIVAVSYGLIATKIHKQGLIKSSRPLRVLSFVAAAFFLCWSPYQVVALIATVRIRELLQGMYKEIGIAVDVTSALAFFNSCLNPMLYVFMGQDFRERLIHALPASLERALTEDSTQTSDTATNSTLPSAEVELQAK

[2] = biological target: T2, N-formyl peptide receptor 2 (Homo sapiens, UniProt P25090); experiment: Agonist activity at human recombinant FPR2 stably transfected in Flp-In-CHO cells assessed as increase in intracellular calcium mobilization incubated for 1 hr by Fluo-4 AM dye based fluorescence plate reader assay; assay type: cell-based
T2 sequence (P25090 whole entry): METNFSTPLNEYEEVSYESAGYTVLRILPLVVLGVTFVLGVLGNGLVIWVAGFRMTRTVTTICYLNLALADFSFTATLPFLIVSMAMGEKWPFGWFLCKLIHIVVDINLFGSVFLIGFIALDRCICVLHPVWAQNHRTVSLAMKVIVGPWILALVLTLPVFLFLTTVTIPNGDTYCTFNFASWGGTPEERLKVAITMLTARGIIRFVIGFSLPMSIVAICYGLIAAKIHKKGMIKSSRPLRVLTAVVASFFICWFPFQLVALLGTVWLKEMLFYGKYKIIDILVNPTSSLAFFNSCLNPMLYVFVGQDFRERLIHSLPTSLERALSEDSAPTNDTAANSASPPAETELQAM

[3] = biological target: T3, fMet-Leu-Phe receptor (Homo sapiens, UniProt P21462); experiment: Agonist activity at human recombinant FPR1 stably transfected in Flp-In-CHO cells assessed as increase in intracellular calcium mobilization incubated for 1 hr by Fluo-4 AM dye based fluorescence plate reader assay; assay type: cell-based
T3 sequence (P21462 whole entry): T1 sequence (whole entry)

[4] = biological target: T1, fMet-Leu-Phe receptor (Homo sapiens); experiment: Agonist activity at human recombinant FPR1 stably transfected in Flp-In-CHO cells assessed as ERK1/2 phosphorylation at 10 uM incubated for 1 hr by Alphascreen fluorescence assay relative to control; assay type: cell-based; conditions: filed as agonist
[5] = biological target: T2, N-formyl peptide receptor 2; experiment: Agonist activity at human recombinant FPR2 stably transfected in Flp-In-CHO cells assessed as ERK1/2 phosphorylation incubated for 1 hr by Alphascreen fluorescence assay; assay type: cell-based
[6] = biological target: T4, N-formyl peptide receptor 2 (Homo sapiens) (UniProt P25090); experiment: Agonist activity at human recombinant FPR2 stably transfected in Flp-In-CHO cells assessed as ERK1/2 phosphorylation at 10 uM incubated for 1 hr by Alphascreen fluorescence assay relative to control; assay type: cell-based
T4 sequence (whole entry): T2 sequence (P25090 whole entry)

[7] = biological target: T3, fMet-Leu-Phe receptor; experiment: Agonist activity at human recombinant FPR1 stably transfected in Flp-In-CHO cells assessed as ERK1/2 phosphorylation incubated for 1 hr by Alphascreen fluorescence assay; assay type: cell-based
[8] = biological target: T4, N-formyl peptide receptor 2 (Homo sapiens); experiment: Agonist activity at human recombinant FPR2 stably transfected in Flp-In-CHO cells assessed as maximal intracellular calcium mobilization at 10 uM incubated for 1 hr by Fluo-4 AM dye based fluorescence plate reader assay relative to control; assay type: cell-based
[9] = test system: Mus musculus; experiment: Anti-inflammatory activity against BALB/c mouse assessed as suppression ratio of LPS-induced neutrophil infiltration in lung at 3 mg/kg,po measured after 5.5 hrs by Diff-Quick staining based microscopic analysis; assay type: functional
[10] = biological target: T3, fMet-Leu-Phe receptor; experiment: Agonist activity at human FPR1 transfected in HL-60 cells assessed as increase in intracellular calcium flux incubated for 30 mins by Fluo-4 AM dye based fluorometer analysis; assay type: cell-based; conditions: read-out: EC50
[11] = biological target: T2, N-formyl peptide receptor 2; experiment: Agonist activity at human FPR2 transfected in HL-60 cells assessed as increase in intracellular calcium flux incubated for 30 mins by Fluo-4 AM dye based fluorometer analysis; assay type: cell-based; conditions: read-out: EC50
[12] = biological target: T4, N-formyl peptide receptor 2 (Homo sapiens); experiment: Agonist activity at human FPR2 transfected in HL-60 cells assessed as maximal intracellular calcium flux incubated for 30 mins by Fluo-4 AM dye based fluorometer analysis relative to control; assay type: cell-based; conditions: filed as agonist
[13] = biological target: T1, fMet-Leu-Phe receptor (Homo sapiens); experiment: Agonist activity at human FPR1 transfected in HL-60 cells assessed as maximal intracellular calcium flux incubated for 30 mins by Fluo-4 AM dye based fluorometer analysis relative to control; assay type: cell-based; conditions: filed as agonist
[14] = Agonist activity at FPR in human PMNL cells assessed as increase in intracellular calcium mobilization incubated for 30 mins by Fluo-4 AM dye based fluorometer analysis; assay type: cell-based; conditions: 0.5 h
[15] = biological target: T2, N-formyl peptide receptor 2; experiment: Agonist activity at human FPR2 expressed in HEK293 cells assessed as increase in calcium flux incubated for 45 mins by Fluo-4 AM dye based fluorescence assay; assay type: cell-based
[16] = test system: Mus musculus; experiment: Anti-inflammatory activity against BALB/c mouse assessed as suppression ratio of LPS-induced neutrophil infiltration in lung at 1 mg/kg,po measured after 5.5 hrs by Diff-Quick staining based microscopic analysis; assay type: functional
[17] = test system: Peritoneal macrophage; experiment: Induction of phagocytosis in C57BL6 mouse peritoneal macrophages assessed as increase in FITC signal preincubated with compound for 15 mins followed by zymosan addition and measured after 90 mins by Trypan Blue based FITC analysis
[18] = Agonist activity at rat FPR2 expressed in CHO-A12 cells assessed as cAMP level incubated for 1.5 hr by HTRF assay; assay type: cell-based
[19] = biological target: T2, N-formyl peptide receptor 2; experiment: Agonist activity at human FPR2 expressed in CHO-A12 cells assessed as cAMP level incubated for 1.5 hr by HTRF assay; assay type: cell-based
[20] = test system: HL-60; experiment: Inhibition of cell migration in human HL-60 cells incubated for 135 mins by transwell assay; assay type: functional, cell-based; conditions: HL-60, 2.25 h
[21] = test system: Mus musculus; experiment: Neuroprotective activity against angiotensin II induced cardiac fibrosis mouse model assessed as reduction in fibrosis at 3 mg/kg,po qd measured after 3 weeks; assay type: functional; parameters: scale not given: the % may be the effect or the level left
[22] = test system: Mus musculus; experiment: Neuroprotective activity against coronary artery occlusion mouse model assessed as reduction in left ventricular chamber dilatation at 0.3 mg/kg,po measured after […]; assay type: functional; parameters: scale not given: the % may be the effect or the level left
[23] = test system: Mus musculus; experiment: Neuroprotective activity against coronary artery occlusion mouse model assessed as reduction in left ventricular chamber dilatation at 3 mg/kg,po measured after […]; assay type: functional; parameters: scale not given: the % may be the effect or the level left
[24] = test system: Mus musculus; experiment: Neuroprotective activity against DOCA induced cardiac fibrosis mouse model assessed as reduction in left ventricular fibrosis at 1 mg/kg,po qd measured after 3 weeks; assay type: functional; parameters: scale not given: the % may be the effect or the level left
[25] = Agonist activity at rat FPR1 expressed in CHO-A12 cells assessed as cAMP level incubated for 1.5 hr by HTRF assay; assay type: cell-based
[26] = Agonist activity at FPR in human PMNL cells assessed as increase in intracellular calcium mobilization incubated for 30 mins by Fluo-4 AM dye based FLIPR-fluorometeric assay; assay type: cell-based; conditions: 0.5 h
[27] = biological target: T1, fMet-Leu-Phe receptor (Homo sapiens); experiment: Agonist activity at human FPR1 transfected in HL-60 cells assessed as maximal intracellular calcium flux incubated for 30 mins by Fluo-4 AM dye based FLIPR-fluorometeric assay relative to control; assay type: cell-based; conditions: filed as agonist
[28] = biological target: T4, N-formyl peptide receptor 2 (Homo sapiens); experiment: Agonist activity at human FPR2 transfected in HL-60 cells assessed as maximal intracellular calcium flux incubated for 30 mins by Fluo-4 AM dye based FLIPR-fluorometeric assay relative to control; assay type: cell-based; conditions: filed as agonist
[29] = test system: PMNL; experiment: Agonist activity at FPR in human PMNL cells assessed as maximal intracellular calcium mobilization incubated for 30 mins by Fluo-4 AM dye based FLIPR-fluorometeric assay relative to control; assay type: cell-based; conditions: filed as agonist
[30] = biological target: T3, fMet-Leu-Phe receptor; experiment: Agonist activity at human FPR1 transfected in HL-60 cells assessed as increase in intracellular calcium flux incubated for 30 mins by Fluo-4 AM dye based FLIPR-fluorometeric assay; assay type: cell-based
[31] = biological target: T2, N-formyl peptide receptor 2; experiment: Agonist activity at human FPR2 transfected in HL-60 cells assessed as increase in intracellular calcium flux incubated for 30 mins by Fluo-4 AM dye based FLIPR-fluorometeric assay; assay type: cell-based
[32] = biological target: T2, N-formyl peptide receptor 2; experiment: Agonist activity at FPR2 (unknown origin) assessed as increase in calcium flux

Emax [1]: 22%
EC50 [2]: > 10000 nM
EC50 [3]: 7940 nM
Emax [4]: 70%
EC50 [5]: 1580 nM
Emax ([6]; filed as agonist): 82%
EC50 [7]: 1000 nM
Emax [8]: 6%
Structure (SMILES): COc1cccc(Cc2cc(C)nn(C(C)C(=O)Nc3ccc(Cl)cc3)c2=O)c1 (racemic)

Structure (SMILES): N/C(=N\C(=O)CCO)[C@H](Cc1ccc(Cl)cc1)NC(=O)Nc1ccc(Cl)cc1
Ratio [9]: 86%

EC50 [10]: 1500 nM
EC50 [11]: 2900 nM
Emax [12]: 130%
Emax [13]: 95%
Structure (SMILES): COc1ccc(NC(=O)N[C@@H](Cc2ccc(O)cc2)C(=O)NCC2(c3ccccc3)CC2)cc1

Emax [1]: 38%
EC50 [2]: > 10000 nM
EC50 [3]: 3980 nM
Emax [4]: 82%
EC50 [5]: 1260 nM
Emax ([6]; filed as agonist): 85%
EC50 [7]: 794 nM
Emax [8]: 8%
Structure (SMILES): COc1cccc(Cc2cc(C)nn([C@H](C)C(=O)Nc3ccc(Cl)cc3)c2=O)c1

EC50 [10]: 12500 nM
EC50 [11]: 8900 nM
EC50 [14]: 4500 nM
Structure (SMILES): O=C(Cn1c(=O)[nH]cc(-c2ccccc2)c1=O)Nc1ccc(Br)cc1

EC50 ([10]; hl-60): 5100 nM
EC50 ([11]; hl-60): 410 nM
Emax [12]: 90%
Emax [13]: 55%
Structure (SMILES): COc1ccc(NC(=O)N[C@H](Cc2ccc(O)cc2)C(=O)NCC2(c3ccccc3)CC2)cc1

Emax [1]: 16%
EC50 [2]: > 10000 nM
EC50 [3]: > 10000 nM
Emax [4]: 78%
EC50 [5]: > 10000 nM
Emax [6]: 8%
EC50 [7]: 1260 nM
Emax [8]: 4%
Structure (SMILES): COc1cccc(Cc2cc(C)nn([C@@H](C)C(=O)Nc3ccc(Cl)cc3)c2=O)c1

EC50 [15]: 0.13 nM
Structure (SMILES): CCN1C[C@@H](c2ccc(OC)cc2)[C@H](NC(=O)Nc2ccc(F)cc2)C1=O
Ratio [9]: 97.4%

EC50 [15]: 0.27 nM
Structure (SMILES): COc1ccc(NC(=O)N[C@@H]2/C(=N/OCCO)NC[C@H]2c2c(F)cc(OC)cc2F)cc1
Ratio [16]: 96.8%

EC50 [15]: 0.17 nM
Structure (SMILES): COc1ccc(C[C@H](NC(=O)Nc2ccc(Cl)cc2)c2noc(CCO)n2)cc1
Ratio [9]: 94%

Structure (SMILES): N#Cc1ccc(NC(=O)N[C@@H]2C(=O)NC[C@H]2c2cc3c(cc2F)OCC3)cc1
Ratio [16]: 99.2%

EC50 [18]: 720 nM
EC50 [19]: 1250 nM
IC50 [20]: 57 nM
EC50 [25]: 1.5 nM
Structure (SMILES): COc1cc(F)c([C@@H]2CNC(=O)[C@H]2NC(=O)Nc2ccccc2)c(F)c1 [BMS-986235]
EC50 [17]: 2 nM
Activity [21]: 89%
Activity [22]: 26%
Activity [23]: 24%
Activity [24]: 50%

EC50 [26]: 19 nM
Emax [27]: 85%
Emax [28]: 80%
Structure (SMILES): COc1cccc(Cc2c(C)c(C)nn(CC(=O)Nc3ccc(Br)cc3)c2=O)c1
Emax [29]: 85%

EC50 [15]: 0.86 nM
Structure (SMILES): COc1cc(F)c([C@@H]2CNC(=O)[C@H]2NC(=O)Nc2ccc(C)cc2)c(F)c1
Ratio [9]: 57%

EC50 [26]: 270 nM
EC50 ([30]; read-out: EC50): 900 nM
Emax [27]: 60%
EC50 ([31]; hl-60): 13 nM
Emax [28]: 95%
Structure (SMILES): COc1ccc(Cc2c(C)c(C)nn(CC(=O)Nc3ccc(Br)cc3)c2=O)cc1
Emax [29]: 140%

EC50 [10]: 1600 nM
EC50 [11]: 120 nM
EC50 [14]: 390 nM
Structure (SMILES): COc1cccc(-c2cc(C#N)c(C)n(CC(=O)Nc3ccc(Br)cc3)c2=O)c1

EC50 [26]: 200 nM
EC50 [30]: Not Active
EC50 [31]: 150 nM
Emax [28]: 115%
Structure (SMILES): COc1cccc(Cc2c(-c3ccccc3)c(C)nn(CC(=O)Nc3ccc(Br)cc3)c2=O)c1
Emax [29]: 110%

EC50 [32]: 0.02 nM
Structure (SMILES): COc1cc(F)c([C@@H]2CN3CCON=C3[C@H]2NC(=O)Nc2ccc(F)cc2)c(F)c1
